Data as given in ChEMBL document CHEMBL3758137 (Eur J Med Chem, 2016).
pIC50: −log10 of the molar value.

Experiments:
[1] = target: Insulin-like growth factor 1 receptor (Homo sapiens, UniProt P08069); experiment: Inhibition of recombinant human IGF1R using poly (Glu,Tyr)4:1 as substrate after 60 mins by ELISA
[2] = target: T1, Receptor-type tyrosine-protein kinase FLT3 (Homo sapiens, UniProt P36888); experiment: Inhibition of recombinant human Flt-3 using poly (Glu,Tyr)4:1 as substrate after 60 mins by ELISA
T1 sequence (P36888 whole entry): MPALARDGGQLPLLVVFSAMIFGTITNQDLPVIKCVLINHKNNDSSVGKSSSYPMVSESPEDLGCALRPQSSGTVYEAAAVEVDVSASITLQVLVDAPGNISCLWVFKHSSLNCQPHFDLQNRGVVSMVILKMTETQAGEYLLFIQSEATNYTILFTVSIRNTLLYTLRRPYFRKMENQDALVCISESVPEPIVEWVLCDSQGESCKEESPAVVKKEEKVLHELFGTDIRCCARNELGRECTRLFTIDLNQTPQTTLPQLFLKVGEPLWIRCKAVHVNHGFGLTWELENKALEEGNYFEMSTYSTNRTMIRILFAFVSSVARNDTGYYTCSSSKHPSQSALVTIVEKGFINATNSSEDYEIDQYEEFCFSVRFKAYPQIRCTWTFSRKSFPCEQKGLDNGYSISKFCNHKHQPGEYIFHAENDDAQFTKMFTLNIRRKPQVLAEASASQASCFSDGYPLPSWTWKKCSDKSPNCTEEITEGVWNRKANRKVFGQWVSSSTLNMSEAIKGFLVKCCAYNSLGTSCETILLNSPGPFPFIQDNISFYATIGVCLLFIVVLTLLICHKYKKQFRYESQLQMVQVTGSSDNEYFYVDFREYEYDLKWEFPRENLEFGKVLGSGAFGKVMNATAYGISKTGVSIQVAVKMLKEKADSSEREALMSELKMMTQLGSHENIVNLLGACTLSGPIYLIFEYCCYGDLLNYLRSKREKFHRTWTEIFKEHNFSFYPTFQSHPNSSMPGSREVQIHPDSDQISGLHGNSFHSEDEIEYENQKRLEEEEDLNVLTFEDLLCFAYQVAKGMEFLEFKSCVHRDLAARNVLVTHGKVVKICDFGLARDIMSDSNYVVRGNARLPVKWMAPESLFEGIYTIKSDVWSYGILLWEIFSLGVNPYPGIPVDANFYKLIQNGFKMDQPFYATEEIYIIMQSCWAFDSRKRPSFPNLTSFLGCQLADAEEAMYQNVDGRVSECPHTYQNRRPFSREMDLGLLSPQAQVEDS

[3] = Solubility of compound in HBSS/HEPES buffer at pH 6.8 by nephelometric analysis in presence of 0.1% BSA; format: physicochemical; settings: HBSS/HEPES buffer with 0.1% BSA
Mus musculus = experiment: Toxicity in nude mouse xenografted with human EBC1 cells assessed as body weight at 5 and 40 mg/kg, po qd administered for 21 days; format: organism-based; settings: in vivo, 504 h
[4] = target: Platelet-derived growth factor receptor alpha (Homo sapiens, UniProt P16234); experiment: Inhibition of recombinant human PDGFR-alpha using poly (Glu,Tyr)4:1 as substrate after 60 mins by ELISA
[5] = Apparent permeability from basolateral to apical side in human Caco2 cells after 35 to 95 mins by LC-MS/MS analysis; format: ADME, cell-based; settings: Caco-2
[6] = Apparent permeability from apical to basolateral side in human Caco2 cells after 35 to 95 mins by LC-MS/MS analysis; format: ADME, cell-based; settings: Caco-2
[7] = target: T2, Tyrosine-protein kinase Mer (Homo sapiens, UniProt Q12866); experiment: Inhibition of recombinant human Mer using poly (Glu,Tyr)4:1 as substrate after 60 mins by ELISA
T2 sequence (Q12866 whole entry): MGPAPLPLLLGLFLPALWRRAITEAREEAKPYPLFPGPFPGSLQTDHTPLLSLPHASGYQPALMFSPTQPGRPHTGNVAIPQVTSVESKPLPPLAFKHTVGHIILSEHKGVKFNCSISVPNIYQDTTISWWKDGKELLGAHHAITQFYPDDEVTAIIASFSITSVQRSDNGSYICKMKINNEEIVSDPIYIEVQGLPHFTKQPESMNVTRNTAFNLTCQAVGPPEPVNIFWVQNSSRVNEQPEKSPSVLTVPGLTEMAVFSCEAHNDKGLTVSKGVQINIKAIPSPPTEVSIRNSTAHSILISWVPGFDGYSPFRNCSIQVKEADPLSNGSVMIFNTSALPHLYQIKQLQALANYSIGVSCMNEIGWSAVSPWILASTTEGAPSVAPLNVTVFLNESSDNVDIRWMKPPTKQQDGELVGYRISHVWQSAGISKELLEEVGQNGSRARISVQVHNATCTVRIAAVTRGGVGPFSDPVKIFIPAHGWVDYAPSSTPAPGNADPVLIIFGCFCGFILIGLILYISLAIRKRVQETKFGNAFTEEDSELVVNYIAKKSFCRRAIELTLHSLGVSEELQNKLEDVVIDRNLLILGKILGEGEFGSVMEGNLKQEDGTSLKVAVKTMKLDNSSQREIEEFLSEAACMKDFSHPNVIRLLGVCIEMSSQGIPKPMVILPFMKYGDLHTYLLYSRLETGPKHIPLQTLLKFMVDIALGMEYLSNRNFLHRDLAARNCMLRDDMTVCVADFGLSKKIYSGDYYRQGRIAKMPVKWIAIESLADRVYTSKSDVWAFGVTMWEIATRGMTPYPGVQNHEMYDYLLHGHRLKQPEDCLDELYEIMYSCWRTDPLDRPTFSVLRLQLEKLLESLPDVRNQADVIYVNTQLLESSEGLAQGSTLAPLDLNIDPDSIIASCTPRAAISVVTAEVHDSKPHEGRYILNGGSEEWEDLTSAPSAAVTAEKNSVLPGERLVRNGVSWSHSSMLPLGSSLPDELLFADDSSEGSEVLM

[8] = Efflux ratio of apparent permeability from basolateral to apical side over apical to basolateral side in human Caco2 cells after 35 to 95 mins by LC-MS/MS analysis; format: ADME, cell-based; settings: Caco-2
[9] = target: Fibroblast growth factor receptor 1 (Homo sapiens, UniProt P11362); experiment: Inhibition of recombinant human FGFR1 using poly (Glu,Tyr)4:1 as substrate after 60 mins by ELISA
Ephrin type-A receptor 2 = Ephrin type-A receptor 2 (Homo sapiens, UniProt P29317); experiment: Inhibition of recombinant human EPH-A2 using poly (Glu,Tyr)4:1 as substrate after 60 mins by ELISA
[10] = Antitumor activity against human EBC1 cells xenografted in nude mouse assessed as tumor growth inhibition at 40 mg/kg, po qd administered for 21 days relative control; format: functional; settings: EBC-1, po, 504 h, read-out: TGI
[11] = target: Epidermal growth factor receptor (Homo sapiens, UniProt P00533); experiment: Inhibition of recombinant human EGFR using poly (Glu,Tyr)4:1 as substrate after 60 mins by ELISA
Liver microsome = experiment: Intrinsic clearance in rat liver microsomes at 0.1 uM after 7 to 60 mins by LC-MS/MS analysis; format: ADME

Sequence of Fibroblast growth factor receptor 1 (P11362 whole entry): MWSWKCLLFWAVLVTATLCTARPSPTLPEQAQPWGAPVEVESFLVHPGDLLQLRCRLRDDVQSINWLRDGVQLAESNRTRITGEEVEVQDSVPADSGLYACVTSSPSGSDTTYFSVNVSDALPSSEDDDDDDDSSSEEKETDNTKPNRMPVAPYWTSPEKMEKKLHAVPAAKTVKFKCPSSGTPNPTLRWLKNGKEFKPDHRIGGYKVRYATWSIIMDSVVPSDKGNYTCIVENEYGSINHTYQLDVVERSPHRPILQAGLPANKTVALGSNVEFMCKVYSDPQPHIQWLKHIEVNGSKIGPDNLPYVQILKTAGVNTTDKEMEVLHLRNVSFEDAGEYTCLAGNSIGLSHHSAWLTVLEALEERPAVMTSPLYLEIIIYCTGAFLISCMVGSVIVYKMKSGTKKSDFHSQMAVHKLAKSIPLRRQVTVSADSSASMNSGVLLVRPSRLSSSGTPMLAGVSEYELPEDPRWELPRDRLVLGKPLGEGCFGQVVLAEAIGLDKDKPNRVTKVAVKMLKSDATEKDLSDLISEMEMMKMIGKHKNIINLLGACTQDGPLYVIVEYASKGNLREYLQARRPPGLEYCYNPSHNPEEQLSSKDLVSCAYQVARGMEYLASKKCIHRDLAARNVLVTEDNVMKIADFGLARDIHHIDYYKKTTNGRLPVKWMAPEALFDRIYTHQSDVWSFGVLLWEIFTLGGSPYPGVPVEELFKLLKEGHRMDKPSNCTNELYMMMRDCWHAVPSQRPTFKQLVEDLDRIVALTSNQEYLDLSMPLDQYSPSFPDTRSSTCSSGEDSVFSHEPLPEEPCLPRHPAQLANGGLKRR
Sequence of Insulin-like growth factor 1 receptor (P08069 31-736 limits assumed): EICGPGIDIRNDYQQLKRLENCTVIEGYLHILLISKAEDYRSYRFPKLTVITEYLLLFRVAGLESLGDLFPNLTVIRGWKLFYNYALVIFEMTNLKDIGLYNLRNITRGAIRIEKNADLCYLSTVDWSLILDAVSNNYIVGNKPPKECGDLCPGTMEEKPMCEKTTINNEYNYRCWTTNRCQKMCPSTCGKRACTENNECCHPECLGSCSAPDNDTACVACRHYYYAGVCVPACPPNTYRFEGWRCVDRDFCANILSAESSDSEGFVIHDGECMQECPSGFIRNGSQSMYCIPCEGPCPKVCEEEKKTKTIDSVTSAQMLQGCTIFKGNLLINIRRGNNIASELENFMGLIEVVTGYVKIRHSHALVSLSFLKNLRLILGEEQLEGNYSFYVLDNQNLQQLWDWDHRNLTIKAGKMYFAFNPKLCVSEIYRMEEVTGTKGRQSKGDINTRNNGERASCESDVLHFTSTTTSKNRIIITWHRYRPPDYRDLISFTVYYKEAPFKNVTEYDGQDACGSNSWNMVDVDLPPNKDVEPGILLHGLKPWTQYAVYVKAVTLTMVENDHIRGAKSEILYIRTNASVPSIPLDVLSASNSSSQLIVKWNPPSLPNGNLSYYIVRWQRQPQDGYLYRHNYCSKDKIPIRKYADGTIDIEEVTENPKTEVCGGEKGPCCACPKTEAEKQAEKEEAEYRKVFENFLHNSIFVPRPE
Sequence of Insulin-like growth factor 1 receptor (P08069 741-1367 limits assumed): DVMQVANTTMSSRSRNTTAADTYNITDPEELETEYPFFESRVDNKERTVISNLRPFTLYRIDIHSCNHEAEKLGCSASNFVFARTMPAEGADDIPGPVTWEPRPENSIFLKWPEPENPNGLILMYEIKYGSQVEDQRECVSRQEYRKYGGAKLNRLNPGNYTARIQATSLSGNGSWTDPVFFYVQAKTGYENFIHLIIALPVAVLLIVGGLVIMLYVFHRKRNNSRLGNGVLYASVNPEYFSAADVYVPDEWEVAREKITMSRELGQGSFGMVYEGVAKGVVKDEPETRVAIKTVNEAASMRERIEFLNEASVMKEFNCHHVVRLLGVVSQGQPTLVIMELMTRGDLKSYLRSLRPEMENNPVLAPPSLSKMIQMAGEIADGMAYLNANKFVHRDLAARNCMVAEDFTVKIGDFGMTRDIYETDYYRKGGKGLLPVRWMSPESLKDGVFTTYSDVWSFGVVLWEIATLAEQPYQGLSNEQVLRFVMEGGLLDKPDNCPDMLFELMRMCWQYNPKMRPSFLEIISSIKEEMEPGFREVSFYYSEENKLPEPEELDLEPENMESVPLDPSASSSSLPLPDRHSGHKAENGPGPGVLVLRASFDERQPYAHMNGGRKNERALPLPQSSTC
Sequence of Epidermal growth factor receptor (P00533 whole entry): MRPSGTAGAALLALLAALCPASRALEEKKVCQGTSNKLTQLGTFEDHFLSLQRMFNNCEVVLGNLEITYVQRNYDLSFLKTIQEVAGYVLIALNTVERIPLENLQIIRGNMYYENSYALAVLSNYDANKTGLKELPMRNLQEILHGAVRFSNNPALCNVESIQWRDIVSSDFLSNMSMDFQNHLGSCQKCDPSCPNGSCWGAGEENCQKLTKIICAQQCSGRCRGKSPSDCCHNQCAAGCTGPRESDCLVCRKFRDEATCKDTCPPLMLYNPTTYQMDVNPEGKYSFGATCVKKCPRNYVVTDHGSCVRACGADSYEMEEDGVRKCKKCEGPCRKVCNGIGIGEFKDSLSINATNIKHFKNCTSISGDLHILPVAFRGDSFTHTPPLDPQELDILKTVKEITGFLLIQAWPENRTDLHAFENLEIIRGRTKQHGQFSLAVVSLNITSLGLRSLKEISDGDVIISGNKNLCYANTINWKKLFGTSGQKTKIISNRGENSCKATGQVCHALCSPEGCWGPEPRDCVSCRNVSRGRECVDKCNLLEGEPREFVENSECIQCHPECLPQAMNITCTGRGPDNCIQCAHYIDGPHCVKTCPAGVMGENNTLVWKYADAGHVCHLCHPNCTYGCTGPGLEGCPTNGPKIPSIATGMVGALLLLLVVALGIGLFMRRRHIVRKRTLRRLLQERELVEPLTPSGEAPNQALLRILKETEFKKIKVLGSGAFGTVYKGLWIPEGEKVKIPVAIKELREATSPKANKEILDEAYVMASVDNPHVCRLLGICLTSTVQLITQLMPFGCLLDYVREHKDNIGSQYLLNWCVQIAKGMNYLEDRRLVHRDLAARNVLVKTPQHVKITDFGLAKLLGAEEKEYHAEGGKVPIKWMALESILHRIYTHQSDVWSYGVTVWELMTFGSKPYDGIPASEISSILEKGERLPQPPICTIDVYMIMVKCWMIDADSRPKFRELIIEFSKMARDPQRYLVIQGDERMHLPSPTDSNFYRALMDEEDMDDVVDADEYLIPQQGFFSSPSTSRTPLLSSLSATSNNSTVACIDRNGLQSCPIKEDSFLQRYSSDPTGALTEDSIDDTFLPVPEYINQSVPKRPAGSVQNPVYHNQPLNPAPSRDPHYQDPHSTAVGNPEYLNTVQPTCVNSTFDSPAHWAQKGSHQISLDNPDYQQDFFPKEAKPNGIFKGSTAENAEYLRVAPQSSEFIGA
Sequence of Platelet-derived growth factor receptor alpha (P16234 whole entry): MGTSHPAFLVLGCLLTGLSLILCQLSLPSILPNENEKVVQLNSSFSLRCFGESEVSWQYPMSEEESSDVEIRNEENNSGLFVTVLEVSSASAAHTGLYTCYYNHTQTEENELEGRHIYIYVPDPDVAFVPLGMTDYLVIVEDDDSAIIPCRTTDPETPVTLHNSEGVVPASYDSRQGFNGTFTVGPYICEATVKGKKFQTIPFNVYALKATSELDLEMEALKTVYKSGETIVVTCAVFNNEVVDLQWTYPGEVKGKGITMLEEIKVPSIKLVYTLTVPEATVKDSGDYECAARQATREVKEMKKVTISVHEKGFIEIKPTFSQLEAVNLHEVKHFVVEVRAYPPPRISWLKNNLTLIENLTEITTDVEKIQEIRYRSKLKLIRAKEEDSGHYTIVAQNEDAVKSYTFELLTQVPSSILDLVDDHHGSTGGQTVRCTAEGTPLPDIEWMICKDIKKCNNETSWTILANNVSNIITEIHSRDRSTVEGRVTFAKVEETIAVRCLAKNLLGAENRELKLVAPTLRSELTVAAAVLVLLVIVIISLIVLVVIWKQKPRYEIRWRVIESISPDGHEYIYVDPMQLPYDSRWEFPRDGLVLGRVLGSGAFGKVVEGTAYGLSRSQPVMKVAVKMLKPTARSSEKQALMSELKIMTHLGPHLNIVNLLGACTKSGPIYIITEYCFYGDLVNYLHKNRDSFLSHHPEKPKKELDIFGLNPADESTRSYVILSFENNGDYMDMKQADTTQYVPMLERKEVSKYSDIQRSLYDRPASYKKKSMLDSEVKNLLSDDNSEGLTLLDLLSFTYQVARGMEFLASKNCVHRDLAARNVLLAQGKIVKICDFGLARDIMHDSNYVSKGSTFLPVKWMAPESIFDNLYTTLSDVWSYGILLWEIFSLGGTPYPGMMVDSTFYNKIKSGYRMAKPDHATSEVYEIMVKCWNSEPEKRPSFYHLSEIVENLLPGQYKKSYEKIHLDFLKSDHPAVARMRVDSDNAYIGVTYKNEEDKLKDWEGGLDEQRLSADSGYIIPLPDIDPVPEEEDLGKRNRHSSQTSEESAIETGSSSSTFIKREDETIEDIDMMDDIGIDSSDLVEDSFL

- pIC50 [1]: < 6.00
- pIC50 [2]: < 6.00
- solubility kinetic [3]: 51 µM
- pIC50 [4]: < 6.00
- Papp B→A [5]: 22.8 ×10⁻⁶ cm/s
- Papp A→B [6]: 17 ×10⁻⁶ cm/s
- pIC50 [7]: < 6.00
- efflux ratio [8]: 1.3
- pIC50 [9]: < 6.00
- pIC50 (Ephrin type-A receptor 2): < 6.00
- pIC50 [11]: < 6.00
- CLH (Liver microsome): 36 mL/min/g
Compound: Cn1cc(-c2cnc(Nc3cccc(Cn4nc(-c5cnn(C)c5)ccc4=O)c3)nc2)cn1
- Activity (Mus musculus): Non-toxic
- inhibition in vivo at 40 mg/kg [10]: 68.6%
